Assay results reported in patent US20140045873A1, “NOVEL MICROBIOCIDES” (SYNGENTA PARTICIPATIONS AG, priority 2010, published 2014).
Where two headings read alike, the source gives them in different places.

Legend:
[1] = tested on: Botryotinia fuckeliana (Botrytis cinerea); test: Botryotinia fuckeliana (Botrytis cinerea) / liquid culture (gray mould); type: cell-based; conditions: Vogels broth, 24° C., 3-4 days after application, read-out: control of Botryotinia fuckeliana (inhibition of growth, photometric)
Description: Botryotinia Fuckeliana (Botrytis cinerea)/Liquid Culture (Gray Mould): Conidia of the fungus from cryogenic storage were directly mixed into nutrient broth (Vogels broth). […].45

[2] = tested on: Glomerella lagenarium (Colletotrichum lagenarium); test: Glomerella lagenarium (Colletotrichum lagenarium) / liquid culture (anthracnose); type: cell-based; conditions: Colletotrichum orbiculare; 200 ppm, liquid culture, PDB, 24° C., 3-4 days after application; read-out: control of Glomerella lagenarium (inhibition of growth, photometric)
[3] = tested on: Mycosphaerella arachidis (Cercospora arachidicola); test: Mycosphaerella arachidis (Cercospora arachidicola) / liquid culture (early leaf spot); type: cell-based; conditions: 200 ppm, liquid culture, PDB, 24° C., 4-5 days after application, read-out: control of Mycosphaerella arachidis (inhibition of growth, photometric)
[4] = tested on: Mycosphaerella graminicola (Septoria tritici); test: Mycosphaerella graminicola (Septoria tritici) / liquid culture (Septoria blotch); type: cell-based; conditions: Zymoseptoria tritici; 200 ppm, liquid culture, PDB, 24° C., 4-5 days after application; read-out: control of Mycosphaerella graminicola (inhibition of growth, photometric)
[5] = tested on: Monographella nivalis (Microdochium nivale); test: Monographella nivalis (Microdochium nivale) / liquid culture (foot rot cereals); type: cell-based; conditions: PDB, 24° C., 4-5 days after application, read-out: control of Monographella nivalis (inhibition of growth, photometric)
Alternaria solani = Alternaria solani / tomato / leaf disc (early blight); type: in vivo; conditions: foliar, tomato leaf disks cv. Baby, inoculated 2 days after application, assessed 5-7 days after application, read-out: control of Alternaria solani (percent disease control compared to untreated)
Procedure: The inoculated leaf disks were incubated at 23° C./21° C. […].44

Pythium ultimum = Pythium ultimum / liquid culture (seedling damping off); type: cell-based; conditions: Globisporangium ultimum, potato dextrose broth, 24° C., 2-3 days after application, read-out: control of Pythium ultimum (inhibition of growth, photometric)
Pyrenophora teres = conditions: in Hordeum vulgare, foliar, read-out: control of Pyrenophora teres (disease control compared to untreated)
[6] = tested on: Puccinia recondita f. sp. tritici; conditions: in Triticum aestivum, foliar, read-out: control of Puccinia recondita f. sp. tritici (percent disease control compared to untreated)
[7] = tested on: Puccinia recondita f. sp. tritici; conditions: in Triticum aestivum, foliar, read-out: control of Puccinia recondita f. sp. tritici (percent disease control compared to untreated); remark: listed apart in the source
[8] = tested on: Thanatephorus cucumeris (Rhizoctonia solani); conditions: read-out: control of Thanatephorus cucumeris (inhibition of growth, photometric)
[9] = tested on: Phaeosphaeria nodorum (Septoria nodorum); conditions: Parastagonospora nodorum, in Triticum aestivum, foliar, read-out: control of Phaeosphaeria nodorum (percent disease control compared to untreated)
Gaeumannomyces graminis = Gaeumannomyces graminis / liquid culture (take-all of cereals); type: cell-based; conditions: 200 ppm, liquid culture, PDB, 24° C., 4-5 days after application, read-out: control of Gaeumannomyces graminis (inhibition of growth, photometric)

Structure (SMILES) | inhibition at 200 ppm [1] | inhibition at 200 ppm [2] | inhibition at 200 ppm [3] | inhibition at 200 ppm [4] | inhibition at 200 ppm [5] | pest or weed control at 200 ppm (Alternaria solani) | inhibition at 200 ppm (Pythium ultimum) | pest or weed control at 200 ppm (Pyrenophora teres) | pest or weed control at 200 ppm [6] | pest or weed control at 200 ppm [7] | inhibition at 200 ppm [8] | pest or weed control at 200 ppm [9] | inhibition at 200 ppm (Gaeumannomyces graminis) | melting point
C/C(=N\OCCCc1cccc(-c2cc(OC(C)C)cc(C)n2)n1)c1cccc(C)n1 [P.27] | ≥ 80% | ≥ 80% | ≥ 80% | ≥ 80% | ≥ 80% | ≥ 80% | ≥ 80% | ≥ 80% | ≥ 80% | ≥ 80% | ≥ 80% | ≥ 80% |  | 
CSc1cc(C)nc(-c2cccc(CCCO/N=C(\C)c3cccc(C)n3)n2)c1 [P.17] |  | ≥ 80% | ≥ 80% | ≥ 80% | ≥ 80% |  | ≥ 80% | ≥ 80% | ≥ 80% | ≥ 80% | ≥ 80% | ≥ 80% | ≥ 80% | 76 to 77 °C
COc1cc(C)nc(-c2cccc(CCCO/N=C(\C)c3cccc(C)n3)n2)c1 [P.11, 1-(6-methyl-pyridin-2-yl)-ethanone-O-[3-(4′-methoxy-6′-methyl-[2,2]bipyridinyl-6-yl)-propyl]-oxime] | ≥ 80% | ≥ 80% | ≥ 80% | ≥ 80% | ≥ 80% |  |  | ≥ 80% | ≥ 80% | ≥ 80% | ≥ 80% | ≥ 80% | ≥ 80% | 84 to 86 °C
CCOc1cc(C)nc(-c2cccc(CCCO/N=C(\C)c3cccc(C)n3)n2)c1 [P.12] | ≥ 80% | ≥ 80% | ≥ 80% |  | ≥ 80% | ≥ 80% | ≥ 80% | ≥ 80% | ≥ 80% | ≥ 80% | ≥ 80% | ≥ 80% |  | 
COc1cc(C)nc(-c2cccc(CCCO/N=C(\C)c3nc(C)cc(C)n3)n2)c1 [P.44] | ≥ 80% | ≥ 80% | ≥ 80% | ≥ 80% | ≥ 80% | ≥ 80% | ≥ 80% | ≥ 80% | ≥ 80% | ≥ 80% | ≥ 80% | ≥ 80% | ≥ 80% | 
CCc1cc(O)c(C)c(-c2cccc(CCCO/N=C(\C)c3cccc(C)n3)n2)n1 [P.32] |  |  |  |  |  |  |  |  |  |  |  |  |  | 128 to 130 °C
C/C(=N\OCCCc1cccc(-c2cc(Cl)cc(C)n2)n1)c1cccc(C)n1 [P.16, 1-(6-methyl-pyridin-2-yl)-ethanone-O-[3-(4′-chloro-6′-methyl-[2,2′]bipyridinyl-6-yl)-propyl]-oxime] | ≥ 80% | ≥ 80% | ≥ 80% | ≥ 80% |  |  |  | ≥ 80% | ≥ 80% | ≥ 80% | ≥ 80% | ≥ 80% | ≥ 80% | 53 to 54 °C
